In the NIST ThermoML archive (doi:10.1021/acs.jced.8b00132):
Several values for one entry are separate records, joined by “and”; a condition that tells them apart may be missing. Equal entries are not always repeated. ± gives the expanded uncertainty stated by the source.

Settings: Liquid, transient hot wire

Compound `O=C(C(F)(F)C(F)(F)F)C(F)(C(F)(F)F)C(F)(F)F` [dodecafluoro-2-methylpentan-3-one] has a thermal conductivity (182.75 K, 277 kPa) of 0.07883 ± 0.0016 W/m/K, a thermal conductivity (182.75 K, 315 kPa) of 0.07859 ± 0.0016 W/m/K and a thermal conductivity (182.89 K, 13189 kPa) of 0.08133 ± 0.0017 W/m/K. For the same compound, the thermal conductivity (182.89 K, 19887 kPa) was 0.08218 ± 0.0017 W/m/K, the thermal conductivity (182.89 K, 19910 kPa) was 0.08244 ± 0.0017 W/m/K and the thermal conductivity (182.89 K, 21592 kPa) was 0.08301 ± 0.0017 W/m/K. The thermal conductivity (182.89 K, 21600 kPa) was 0.08295 ± 0.0017 W/m/K, the thermal conductivity (182.9 K, 13187 kPa) was 0.08114 ± 0.0017 W/m/K and the thermal conductivity (183.09 K, 352 kPa) was 0.0792 ± 0.0016 W/m/K. The thermal conductivity (183.09 K, 355 kPa) was 0.07913 ± 0.0016 W/m/K, the thermal conductivity (183.16 K, 13354 kPa) was 0.08121 ± 0.0017 W/m/K and the thermal conductivity (183.16 K, 13358 kPa) was 0.08178 ± 0.0017 W/m/K. It also gave a thermal conductivity (183.18 K, 6554 kPa) of 0.07996 ± 0.0016 W/m/K, a thermal conductivity (183.18 K, 6555 kPa) of 0.08035 ± 0.0016 W/m/K and a thermal conductivity (183.19 K, 88 kPa) of 0.07924 ± 0.0016 W/m/K. The thermal conductivity (183.19 K, 92 kPa) was 0.07941 ± 0.0016 W/m/K, the thermal conductivity (183.21 K, 21596 kPa) was 0.08274 ± 0.0017 W/m/K and the thermal conductivity (183.21 K, 21614 kPa) was 0.08282 ± 0.0017 W/m/K. It also gave a thermal conductivity (183.22 K, 13197 kPa) of 0.08104 ± 0.0017 W/m/K, a thermal conductivity (183.22 K, 13203 kPa) of 0.08122 ± 0.0017 W/m/K and a thermal conductivity (183.22 K, 19909 kPa) of 0.08195 ± 0.0017 W/m/K. The thermal conductivity (183.22 K, 19917 kPa) was 0.08246 ± 0.0017 W/m/K, the thermal conductivity (183.46 K, 394 kPa) was 0.07899 ± 0.0016 W/m/K and the thermal conductivity (183.47 K, 372 kPa) was 0.07904 ± 0.0016 W/m/K. For the same compound, the thermal conductivity (183.49 K, 13357 kPa) was 0.0812 ± 0.0017 W/m/K, the thermal conductivity (183.49 K, 13358 kPa) was 0.08133 ± 0.0017 W/m/K and the thermal conductivity (183.51 K, 6548 kPa) was 0.08023 ± 0.0016 W/m/K. It also gave a thermal conductivity (183.51 K, 6554 kPa) of 0.08027 ± 0.0016 W/m/K, a thermal conductivity (183.52 K, 86 kPa) of 0.07888 ± 0.0016 W/m/K and a thermal conductivity (183.53 K, 84 kPa) of 0.07899 ± 0.0016 W/m/K. It also gave a thermal conductivity (183.57 K, 19904 kPa) of 0.08223 ± 0.0017 W/m/K, a thermal conductivity (183.57 K, 19917 kPa) of 0.08242 ± 0.0017 W/m/K and a thermal conductivity (183.57 K, 21616 kPa) of 0.0827 ± 0.0017 W/m/K. For the same compound, the thermal conductivity (183.57 K, 21619 kPa) was 0.08258 ± 0.0017 W/m/K, the thermal conductivity (183.58 K, 13189 kPa) was 0.08088 ± 0.0017 W/m/K and 0.0813 ± 0.0017 W/m/K and the thermal conductivity (183.86 K, 13353 kPa) was 0.08129 ± 0.0017 W/m/K. The thermal conductivity (183.86 K, 13354 kPa) was 0.08129 ± 0.0017 W/m/K, the thermal conductivity (183.88 K, 417 kPa) was 0.07826 ± 0.0016 W/m/K and the thermal conductivity (183.88 K, 441 kPa) was 0.07853 ± 0.0016 W/m/K. It also gave a thermal conductivity (183.88 K, 6566 kPa) of 0.0801 ± 0.0016 W/m/K, a thermal conductivity (183.88 K, 6568 kPa) of 0.07993 ± 0.0016 W/m/K and a thermal conductivity (183.9 K, 66 kPa) of 0.07888 ± 0.0016 W/m/K. It also gave a thermal conductivity (183.96 K, 21629 kPa) of 0.08212 ± 0.0017 W/m/K, a thermal conductivity (183.97 K, 19889 kPa) of 0.08191 ± 0.0017 W/m/K and a thermal conductivity (183.97 K, 19910 kPa) of 0.08222 ± 0.0017 W/m/K. It also gave a thermal conductivity (183.97 K, 21622 kPa) of 0.0819 ± 0.0017 W/m/K, a thermal conductivity (183.98 K, 13198 kPa) of 0.08092 ± 0.0017 W/m/K and a thermal conductivity (183.98 K, 13202 kPa) of 0.08101 ± 0.0017 W/m/K. For the same compound, the thermal conductivity (184.26 K, 13357 kPa) was 0.08106 ± 0.0017 W/m/K, the thermal conductivity (184.26 K, 13366 kPa) was 0.08106 ± 0.0017 W/m/K and the thermal conductivity (184.29 K, 6565 kPa) was 0.07964 ± 0.0016 W/m/K. The thermal conductivity (184.29 K, 6575 kPa) was 0.07978 ± 0.0016 W/m/K, the thermal conductivity (184.31 K, 72 kPa) was 0.07867 ± 0.0016 W/m/K and the thermal conductivity (184.31 K, 77 kPa) was 0.07869 ± 0.0016 W/m/K. It also gave a thermal conductivity (184.34 K, 428 kPa) of 0.07819 ± 0.0016 W/m/K, a thermal conductivity (184.34 K, 453 kPa) of 0.0783 ± 0.0016 W/m/K and a thermal conductivity (184.41 K, 19891 kPa) of 0.08157 ± 0.0017 W/m/K. The thermal conductivity (184.41 K, 19917 kPa) was 0.08156 ± 0.0017 W/m/K, the thermal conductivity (184.41 K, 21623 kPa) was 0.08222 ± 0.0017 W/m/K and the thermal conductivity (184.41 K, 21641 kPa) was 0.08226 ± 0.0017 W/m/K. The thermal conductivity (184.43 K, 13196 kPa) was 0.0804 ± 0.0016 W/m/K, the thermal conductivity (184.43 K, 13197 kPa) was 0.08067 ± 0.0017 W/m/K and the thermal conductivity (184.7 K, 13354 kPa) was 0.08048 ± 0.0016 W/m/K. It also gave a thermal conductivity (184.71 K, 13360 kPa) of 0.0804 ± 0.0016 W/m/K, a thermal conductivity (184.74 K, 6561 kPa) of 0.07906 ± 0.0016 W/m/K and a thermal conductivity (184.74 K, 6562 kPa) of 0.07913 ± 0.0016 W/m/K. For the same compound, the thermal conductivity (184.76 K, 74 kPa) was 0.07764 ± 0.0016 W/m/K, the thermal conductivity (184.77 K, 70 kPa) was 0.07835 ± 0.0016 W/m/K and the thermal conductivity (191.32 K, 109 kPa) was 0.078 ± 0.0016 W/m/K. The thermal conductivity (191.32 K, 120 kPa) was 0.07787 ± 0.0016 W/m/K, the thermal conductivity (191.32 K, 6011 kPa) was 0.07821 ± 0.0016 W/m/K and the thermal conductivity (191.32 K, 6012 kPa) was 0.0792 ± 0.0016 W/m/K. The thermal conductivity (191.32 K, 9411 kPa) was 0.08012 ± 0.0016 W/m/K, the thermal conductivity (191.33 K, 9419 kPa) was 0.07979 ± 0.0016 W/m/K and the thermal conductivity (191.63 K, 28269 kPa) was 0.08273 ± 0.0017 W/m/K. For the same compound, the thermal conductivity (191.63 K, 28273 kPa) was 0.08292 ± 0.0017 W/m/K, the thermal conductivity (191.63 K, 36162 kPa) was 0.08425 ± 0.0017 W/m/K and the thermal conductivity (191.64 K, 36124 kPa) was 0.08408 ± 0.0017 W/m/K. The thermal conductivity (191.64 K, 44196 kPa) was 0.08537 ± 0.0018 W/m/K, the thermal conductivity (191.64 K, 44213 kPa) was 0.08541 ± 0.0018 W/m/K and the thermal conductivity (191.64 K, 52630 kPa) was 0.08621 ± 0.0018 W/m/K. It also gave a thermal conductivity (191.65 K, 52615 kPa) of 0.08649 ± 0.0018 W/m/K and a thermal conductivity (191.65 K, 61105 kPa) of 0.08792 ± 0.0018 W/m/K.
